The assay concerns murine brainstem glioma (mBSG) cells. As to the kind of experiment: Cell viability / proliferation IC50. The format is cell-based. As to conditions: Mus musculus, read-out: IC50, cell viability.

A word on the IC50: it is the point on the concentration scale where inhibition reaches its midpoint.

In the case of `Cc1nc(Nc2ncc(C(=O)Nc3c(C)cccc3Cl)s2)cc(N2CCN(CCO)CC2)n1` [dasatinib], the IC50 worked out at 19 ± 20 nM.

For the compound `COc1cccc2c1C(=O)c1c(O)c3c(c(O)c1C2=O)C[C@@](O)(C(=O)CO)C[C@@H]3O[C@H]1C[C@H](N)[C@H](O)[C@H](C)O1` [doxorubicin], the IC50 was 710 ± 120 nM.

Source of the values: publication PMC6287766 (Molecular cancer therapeutics, 2017).
